Key:
[1] = target: T1, Alpha-1A adrenergic receptor (Homo sapiens, UniProt P35348); type: functional, cell-based
T1 sequence (P35348 whole entry): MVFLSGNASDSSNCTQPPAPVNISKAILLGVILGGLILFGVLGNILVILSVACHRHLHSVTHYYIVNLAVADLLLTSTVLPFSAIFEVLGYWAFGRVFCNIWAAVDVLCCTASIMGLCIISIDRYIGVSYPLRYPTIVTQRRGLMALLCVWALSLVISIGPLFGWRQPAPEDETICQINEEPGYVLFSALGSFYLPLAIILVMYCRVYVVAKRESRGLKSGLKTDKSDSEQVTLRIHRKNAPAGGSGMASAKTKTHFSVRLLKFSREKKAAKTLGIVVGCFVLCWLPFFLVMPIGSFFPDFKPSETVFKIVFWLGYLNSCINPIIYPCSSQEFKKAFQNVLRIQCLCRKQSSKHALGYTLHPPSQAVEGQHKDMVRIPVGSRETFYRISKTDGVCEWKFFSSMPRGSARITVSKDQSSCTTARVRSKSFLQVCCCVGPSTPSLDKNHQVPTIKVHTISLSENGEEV

[2] = target: T2, Alpha-2A adrenergic receptor (Homo sapiens, UniProt P08913); type: functional, cell-based
T2 sequence (P08913 whole entry): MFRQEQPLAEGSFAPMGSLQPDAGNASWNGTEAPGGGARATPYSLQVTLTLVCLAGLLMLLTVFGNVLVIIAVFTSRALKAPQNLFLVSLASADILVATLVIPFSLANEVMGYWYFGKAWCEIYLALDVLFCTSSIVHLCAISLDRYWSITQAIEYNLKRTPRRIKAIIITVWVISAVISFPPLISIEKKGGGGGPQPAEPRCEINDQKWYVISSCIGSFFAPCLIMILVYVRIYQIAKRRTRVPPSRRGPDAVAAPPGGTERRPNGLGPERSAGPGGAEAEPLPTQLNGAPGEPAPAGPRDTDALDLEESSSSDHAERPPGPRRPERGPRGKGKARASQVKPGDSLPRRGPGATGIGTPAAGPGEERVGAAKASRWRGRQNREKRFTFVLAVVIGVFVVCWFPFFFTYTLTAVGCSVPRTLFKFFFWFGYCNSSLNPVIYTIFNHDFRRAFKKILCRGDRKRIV

[3] = target: Beta-2 adrenergic receptor (Homo sapiens, UniProt P07550)
[4] = target: T3, Type-1 angiotensin II receptor (Homo sapiens, UniProt P30556)
T3 sequence (P30556 whole entry): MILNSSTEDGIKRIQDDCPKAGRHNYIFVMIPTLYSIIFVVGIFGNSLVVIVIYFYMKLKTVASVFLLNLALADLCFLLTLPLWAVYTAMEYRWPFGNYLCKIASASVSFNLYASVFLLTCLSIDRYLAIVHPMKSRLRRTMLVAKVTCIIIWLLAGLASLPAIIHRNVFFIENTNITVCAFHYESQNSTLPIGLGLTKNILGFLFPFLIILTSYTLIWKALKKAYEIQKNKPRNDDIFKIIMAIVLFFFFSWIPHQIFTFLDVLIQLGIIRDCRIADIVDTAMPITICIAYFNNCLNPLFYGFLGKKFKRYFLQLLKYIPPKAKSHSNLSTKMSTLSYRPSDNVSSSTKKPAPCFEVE

Vasopressin V1a receptor = Vasopressin V1a receptor (Homo sapiens, UniProt P37288)
Vasopressin V2 receptor = Vasopressin V2 receptor (Homo sapiens, UniProt P30518)
[5] = target: T4, Muscarinic acetylcholine receptor M1 (Homo sapiens, UniProt P11229); type: functional
T4 sequence (P11229 whole entry): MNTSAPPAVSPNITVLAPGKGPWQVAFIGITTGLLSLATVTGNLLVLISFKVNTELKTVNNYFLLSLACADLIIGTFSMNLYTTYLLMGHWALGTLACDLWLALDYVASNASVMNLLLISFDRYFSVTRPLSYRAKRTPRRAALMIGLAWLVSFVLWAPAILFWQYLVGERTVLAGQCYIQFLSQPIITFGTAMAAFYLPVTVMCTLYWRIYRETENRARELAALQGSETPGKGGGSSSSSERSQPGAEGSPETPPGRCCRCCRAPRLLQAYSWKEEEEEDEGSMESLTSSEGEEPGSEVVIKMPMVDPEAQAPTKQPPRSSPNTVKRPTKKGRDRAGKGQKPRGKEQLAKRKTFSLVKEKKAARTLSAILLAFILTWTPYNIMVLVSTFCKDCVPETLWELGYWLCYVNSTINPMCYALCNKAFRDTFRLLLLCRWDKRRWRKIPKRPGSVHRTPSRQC

[6] = target: Gamma-aminobutyric acid receptor subunit alpha-1 (Rattus norvegicus, UniProt P62813); type: functional
Histamine H2 receptor = Histamine H2 receptor (Homo sapiens, UniProt P25021); type: functional, cell-based
[7] = target: 5-hydroxytryptamine receptor 2B (Homo sapiens, UniProt P41595); type: functional, cell-based
[8] = target: T5, Amine oxidase [flavin-containing] A (Homo sapiens, UniProt P21397); type: functional
T5 sequence (P21397 whole entry): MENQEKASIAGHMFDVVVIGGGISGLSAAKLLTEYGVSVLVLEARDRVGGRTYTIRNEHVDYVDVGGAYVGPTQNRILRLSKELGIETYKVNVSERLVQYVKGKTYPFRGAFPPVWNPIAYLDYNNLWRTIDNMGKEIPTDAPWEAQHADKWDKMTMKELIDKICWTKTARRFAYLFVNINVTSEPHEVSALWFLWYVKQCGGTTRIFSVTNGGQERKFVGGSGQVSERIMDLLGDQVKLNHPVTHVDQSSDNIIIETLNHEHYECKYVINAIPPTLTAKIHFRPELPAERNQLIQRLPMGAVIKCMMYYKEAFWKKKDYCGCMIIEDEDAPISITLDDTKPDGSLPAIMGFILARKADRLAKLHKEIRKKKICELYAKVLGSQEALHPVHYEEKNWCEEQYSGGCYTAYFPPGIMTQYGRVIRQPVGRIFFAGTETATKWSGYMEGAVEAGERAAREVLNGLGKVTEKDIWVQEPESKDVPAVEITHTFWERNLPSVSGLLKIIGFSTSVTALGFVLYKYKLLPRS
Further: assay procedure not described here.

Sequence of Histamine H2 receptor (P25021 whole entry): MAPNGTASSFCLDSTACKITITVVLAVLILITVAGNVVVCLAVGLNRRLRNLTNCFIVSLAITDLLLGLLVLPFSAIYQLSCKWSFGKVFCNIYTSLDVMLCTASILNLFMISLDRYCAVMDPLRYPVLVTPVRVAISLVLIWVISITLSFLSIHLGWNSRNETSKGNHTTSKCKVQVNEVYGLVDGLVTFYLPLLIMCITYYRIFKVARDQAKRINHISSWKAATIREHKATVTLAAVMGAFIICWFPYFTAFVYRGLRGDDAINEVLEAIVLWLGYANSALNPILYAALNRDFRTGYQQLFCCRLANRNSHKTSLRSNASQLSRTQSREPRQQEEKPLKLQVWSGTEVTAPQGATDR
Sequence of 5-hydroxytryptamine receptor 2B (P41595 whole entry): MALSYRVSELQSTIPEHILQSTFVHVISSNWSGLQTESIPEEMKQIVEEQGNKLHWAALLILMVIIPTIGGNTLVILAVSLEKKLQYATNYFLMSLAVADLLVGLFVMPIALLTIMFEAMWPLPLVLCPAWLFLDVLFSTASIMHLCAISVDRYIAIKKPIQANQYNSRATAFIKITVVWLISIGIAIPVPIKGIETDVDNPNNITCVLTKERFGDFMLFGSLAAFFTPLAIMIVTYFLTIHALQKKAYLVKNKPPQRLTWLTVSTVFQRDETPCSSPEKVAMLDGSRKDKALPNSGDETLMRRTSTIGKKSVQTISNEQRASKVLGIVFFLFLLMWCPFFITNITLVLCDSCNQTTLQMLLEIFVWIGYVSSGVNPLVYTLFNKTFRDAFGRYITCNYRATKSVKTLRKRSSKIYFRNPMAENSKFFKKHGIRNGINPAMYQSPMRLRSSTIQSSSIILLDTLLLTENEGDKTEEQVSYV
Sequence of Beta-2 adrenergic receptor (P07550 whole entry): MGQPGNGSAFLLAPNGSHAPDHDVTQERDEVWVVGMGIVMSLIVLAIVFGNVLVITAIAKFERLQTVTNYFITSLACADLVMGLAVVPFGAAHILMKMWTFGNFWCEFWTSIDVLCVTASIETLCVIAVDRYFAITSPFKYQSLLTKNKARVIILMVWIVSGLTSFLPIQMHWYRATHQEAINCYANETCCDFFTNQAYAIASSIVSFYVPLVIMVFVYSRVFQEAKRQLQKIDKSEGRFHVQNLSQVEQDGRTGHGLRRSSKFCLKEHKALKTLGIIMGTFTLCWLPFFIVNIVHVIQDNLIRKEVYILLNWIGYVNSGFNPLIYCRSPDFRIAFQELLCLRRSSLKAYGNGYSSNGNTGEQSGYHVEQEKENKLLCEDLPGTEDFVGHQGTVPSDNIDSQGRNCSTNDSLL
Sequence of Vasopressin V1a receptor (P37288 whole entry): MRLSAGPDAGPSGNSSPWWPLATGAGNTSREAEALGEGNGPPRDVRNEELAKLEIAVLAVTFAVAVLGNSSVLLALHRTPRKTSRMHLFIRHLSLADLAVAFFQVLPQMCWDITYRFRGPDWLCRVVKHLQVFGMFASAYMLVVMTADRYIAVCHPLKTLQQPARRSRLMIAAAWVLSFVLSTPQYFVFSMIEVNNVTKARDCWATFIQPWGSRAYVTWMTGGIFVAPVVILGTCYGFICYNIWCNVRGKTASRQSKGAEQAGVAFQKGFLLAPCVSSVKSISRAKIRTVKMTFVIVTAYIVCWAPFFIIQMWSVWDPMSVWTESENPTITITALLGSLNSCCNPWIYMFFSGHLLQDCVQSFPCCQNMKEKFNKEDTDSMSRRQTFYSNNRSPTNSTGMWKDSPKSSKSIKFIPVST
Sequence of Gamma-aminobutyric acid receptor subunit alpha-1 (P62813 whole entry): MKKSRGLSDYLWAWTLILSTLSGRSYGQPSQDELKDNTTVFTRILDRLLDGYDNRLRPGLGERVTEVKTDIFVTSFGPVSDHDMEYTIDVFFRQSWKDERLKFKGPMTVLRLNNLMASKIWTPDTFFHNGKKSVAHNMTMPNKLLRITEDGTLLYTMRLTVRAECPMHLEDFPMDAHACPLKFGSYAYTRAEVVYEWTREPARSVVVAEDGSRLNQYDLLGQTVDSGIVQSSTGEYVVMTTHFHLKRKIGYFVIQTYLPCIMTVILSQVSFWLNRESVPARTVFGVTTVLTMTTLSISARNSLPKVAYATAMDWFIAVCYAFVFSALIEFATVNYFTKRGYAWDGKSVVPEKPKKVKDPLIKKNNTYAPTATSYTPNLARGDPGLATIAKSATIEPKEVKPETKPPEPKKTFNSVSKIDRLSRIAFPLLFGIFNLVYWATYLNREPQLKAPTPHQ
Sequence of Vasopressin V2 receptor (P30518 whole entry): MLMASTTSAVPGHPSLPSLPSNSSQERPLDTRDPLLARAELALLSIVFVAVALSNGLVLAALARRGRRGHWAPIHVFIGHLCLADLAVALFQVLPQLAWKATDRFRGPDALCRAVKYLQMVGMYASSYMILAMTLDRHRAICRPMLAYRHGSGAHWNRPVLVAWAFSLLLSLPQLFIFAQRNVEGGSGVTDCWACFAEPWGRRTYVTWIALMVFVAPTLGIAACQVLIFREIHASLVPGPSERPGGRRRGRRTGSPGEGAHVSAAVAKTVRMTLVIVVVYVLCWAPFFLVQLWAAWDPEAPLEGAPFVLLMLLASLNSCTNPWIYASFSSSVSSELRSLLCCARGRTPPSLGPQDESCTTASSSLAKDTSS

| Structure (SMILES) | AC50 [1] [µM] | AC50 [2] [µM] | AC50 [3] [µM] | AC50 [4] [µM] | AC50 (Vasopressin V1a receptor) [µM] | AC50 (Vasopressin V2 receptor) [µM] | AC50 [5] [µM] | AC50 [6] [µM] | AC50 (Histamine H2 receptor) [µM] | AC50 [7] [µM] | AC50 [8] [µM] |
| --- | --- | --- | --- | --- | --- | --- | --- | --- | --- | --- | --- |
| N#Cc1ccccc1-c1cc(-c2ccccn2)cn(-c2ccccc2)c1=O | > 30 | > 30 | > 30 | > 30 | > 30 | > 30 | > 30 | > 30 | > 30 | > 30 | > 30 |
| N=C(N)NCCCCCCC(=O)NC(O)C(=O)NCCCCNCCCN (stereo unspecified) | > 30 | > 30 | > 30 | > 30 | > 30 | > 30 | > 30 | > 30 | > 30 | > 30 | > 30 |
| O=C(CCCN1CCC(n2c(O)nc3ccccc32)CC1)c1ccc(F)cc1 [BENPERIDOL] | > 30 | > 30 | 8.6 | > 30 | > 30 | > 30 | 13 | > 30 | > 30 | > 30 | – |
| CCC(=O)OCC(=O)[C@@]1(OC(=O)CC)[C@@H](C)C[C@H]2[C@@H]3CCC4=CC(=O)C=C[C@]4(C)[C@@]3(F)[C@@H](O)C[C@@]21C [BETAMETHASONE DIPROPIONATE] | > 30 | > 30 | > 30 | > 30 | > 30 | > 30 | > 30 | > 30 | > 30 | > 30 | > 30 |
| CCOC(=O)NNc1ccc(N(CC)CC(C)O)nn1 (stereo unspecified) [CADRALAZINE] | > 30 | > 30 | > 30 | > 30 | > 30 | > 30 | > 30 | > 30 | > 30 | > 30 | > 30 |
| CCC(C)(Oc1ccc(C2(c3ccc(OC(C)(CC)C(=O)O)cc3)CCCCC2)cc1)C(=O)O (stereo unspecified) [CLINOFIBRATE] | > 30 | > 30 | > 30 | > 30 | > 30 | > 30 | > 30 | > 30 | > 30 | > 30 | > 30 |
| CCCCC[C@H](O)/C=C/[C@H]1[C@H](O)CC(=O)[C@@H]1C/C=C\CCCC(=O)O [DINOPROSTONE] | > 30 | > 30 | > 30 | > 30 | > 30 | > 30 | > 30 | > 30 | > 30 | > 30 | > 30 |
| CC(C)c1cc2c(cc1S(=O)(=O)O)[C@@]1(C)CCC[C@@](C)(C(=O)O)[C@@H]1CC2 [ECABET] | > 30 | > 30 | > 30 | > 30 | > 30 | > 30 | > 30 | > 30 | > 30 | > 30 | > 30 |
| CCCN(CC)C(CC)C(=O)Nc1c(C)cccc1C (stereo unspecified) [ETIDOCAINE] | > 30 | > 30 | > 30 | > 30 | > 30 | > 30 | > 30 | > 30 | > 30 | > 30 | > 30 |
| Cc1ccc(NC(=O)C2(c3ccc4c(c3)OC(F)(F)O4)CC2)nc1-c1cccc(C(=O)O)c1 [LUMACAFTOR] | > 30 | > 30 | – | > 30 | > 30 | > 30 | > 30 | > 30 | > 30 | > 30 | > 30 |
| CCOC(=O)Nc1ccc2c(c1)N(C(=O)CCN1CCOCC1)c1ccccc1S2 [MORICIZINE] | > 30 | > 30 | – | > 30 | > 30 | > 30 | 22 | > 30 | > 30 | > 30 | > 30 |
| CC[N+]1(C)CCCC(OC(=O)C(O)(c2ccccc2)c2ccccc2)C1 (stereo unspecified) [PIPENZOLATE] | – | > 30 | > 30 | > 30 | > 30 | > 30 | 0.023 | > 30 | > 30 | > 30 | > 30 |
| Cc1cc2nc3c(=O)[nH]c(=O)nc-3n(C[C@H](O)[C@H](O)[C@H](O)COP(=O)(O)O)c2cc1C [RIBOFLAVIN 5'-PHOSPHATE] | 12 | – | > 30 | > 30 | > 30 | > 30 | > 30 | > 30 | > 30 | – | > 30 |
| CN1CCN(c2c(F)cc3c(=O)c(C(=O)O)cn4c3c2SCC4)CC1 [RUFLOXACIN] | > 30 | > 30 | – | > 30 | > 30 | > 30 | > 30 | > 30 | > 30 | > 30 | > 30 |
| COc1c(O[C@@H]2O[C@H](CO)[C@@H](O)[C@H](O)[C@H]2O)cc2c(c1OC)-c1ccc(SC)c(=O)cc1[C@@H](NC(C)=O)CC2 [THIOCOLCHICOSIDE] | > 30 | > 30 | – | > 30 | > 30 | > 30 | > 30 | > 30 | > 30 | > 30 | > 30 |
| COc1cc2nccc(Oc3ccc(NC(=O)Nc4cc(C)on4)c(Cl)c3)c2cc1OC [TIVOZANIB] | > 30 | – | > 3 | – | – | – | > 30 | – | – | – | > 30 |
| COc1cc2c(Nc3ccc(Br)cc3F)ncnc2cc1OCC1CCN(C)CC1 [VANDETANIB] | > 30 | > 30 | – | > 30 | > 30 | > 30 | 11 | > 30 | > 30 | > 30 | > 30 |

Reference: ChEMBL document CHEMBL5291721, “A preclinical secondary pharmacology resource illuminates target-adverse drug reaction associations of marketed drugs” (Nat Commun, 2023)
